{"source": "paper PMC6934184", "about": "“Selective DNA-PKcs inhibition extends the therapeutic index of localized radiotherapy and chemotherapy” (The Journal of Clinical Investigation, 2019)", "molecular_target": "T1, MAP3K8 (COT) (Homo sapiens, UniProt P41279)", "T1 construct": "purchased Thermo Fisher Scientific (Life Technologies) SelectScreen", "T1 sequence (P41279 whole entry)": "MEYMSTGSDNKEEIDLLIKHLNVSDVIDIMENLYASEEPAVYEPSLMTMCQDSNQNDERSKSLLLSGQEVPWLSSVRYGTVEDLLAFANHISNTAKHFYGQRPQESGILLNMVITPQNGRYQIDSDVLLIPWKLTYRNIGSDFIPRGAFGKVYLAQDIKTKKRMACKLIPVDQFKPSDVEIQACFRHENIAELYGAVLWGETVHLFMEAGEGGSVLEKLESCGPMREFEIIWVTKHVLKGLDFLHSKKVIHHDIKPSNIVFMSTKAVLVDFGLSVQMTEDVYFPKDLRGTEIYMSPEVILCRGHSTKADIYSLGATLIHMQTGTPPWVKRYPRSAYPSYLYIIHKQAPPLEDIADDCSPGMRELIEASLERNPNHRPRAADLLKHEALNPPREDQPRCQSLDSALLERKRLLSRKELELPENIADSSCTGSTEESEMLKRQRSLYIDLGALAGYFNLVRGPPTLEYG", "assay": "SelectScreen Z'LYTE", "assay_type": "biochemical", "details": "ATP 100 µM", "summary_of_the_method": "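Percent values come from Thermo SelectScreen profiling of NU5455, combining activity and binding assays. CSF1R was run in Z'LYTE format at Km app ATP, and CAMK1 in Adapta format with ATP listed at 10.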"}
{"smiles": "CN(C(=O)CN1CCOCC1)c1ccc2sc3c(-c4cccc5c(=O)cc(N6CC7CCC(C6)O7)oc45)cccc3c2c1", "note": "[NU5455]", "values": [{"measurement": "inhibition at 1 µM", "result": 3.5, "unit": "%"}]}
